Assay results as given in patent US20250257331A1, “FLAVONOID GLYCOSIDE GLYCOSYLTRANSFERASE LbUGT71BX1 IN LAPORTEA BULBIFERA AS WELL AS THE CODING GENE AND THE USE THEREOF” (INSTITUTE OF CHINESE MATERIA MEDICA CHINA ACADEMY OF …, priority 2024, published 2025).
Entries after “also recorded” stand apart in the source; their conditions may differ.

Test system: glycosyltransferase LbUGT71BX1
Test: in-vitro enzyme activity testing of recombinant LbUGT71BX1 with flavonoid substrates and UDP-sugar donors (LC-Q-TOF-MS)
Format: biochemical, Laportea bulbifera
Conditions: purified recombinant enzyme, 37° C., 1 hour, Tris-HCl pH 7.5, compared with pMAL-c2X empty control
Description: The in-vitro enzyme activity testing steps are as follows: the 50 μL reaction system contained 1 μL flavonoid substrate (40 mM) (kaempferol or myricetin or gossypetin or quercetagetin), 1 μL UDP-sugar donor (100 mM) (UDP-galactose or UDP-glucose) and […] purified enzyme, and Tris-HCl buffer (pH 7.5) was used to complement the system. With the pMAL-c2X empty crude enzyme catalytic system as a negative control, place the reaction system at 37° C. for 1 hour, and add the same volume of methanol to stop the reaction. Concentrate the above mixture in vacuo and reconstitute it with 100 μL of methanol. Perform filtration using a 0.22 m microporous membrane and transfer the sample to a liquid vial for assay. Use the Agilent 1290 Infinity II-6430 Q-TOF to test the sample. The specific liquid conditions are as follows: (1) Column: ACQUITY UPLC BEH C18 1.7 m 2.1×100 mm; (2) Mobile phase: 0.1% pure water for phase A and chromatographic acetonitrile for phase B; (3) Flow rate: 0.3 mL/min; (4) Column temperature: 40° C.; (5) Injection volume: 1.0 μL; (6) Elution conditions are shown in Table 6. The mass spectrometry conditions are: the ion mode is negative ion, the scan range is 100-3000; the mode is Automated MS/MS; the ion fragment collision energy is 20 V; the source temperature is 350° C.; the nebulizer pressure is set to 30 psi.

Compound	product generated from the flavonoid substrate by LbUGT71BX1 (UDP-glucose as sugar donor)	product generated from the flavonoid substrate by LbUGT71BX1 (UDP-galactose as sugar donor)
O=c1c(O)c(-c2ccc(O)c(O)c2)oc2c(O)c(O)cc(O)c12 [gossypetin]	gossypetin-3-O-glucoside	
O=c1c(O)c(-c2ccc(O)cc2)oc2cc(O)cc(O)c12 [kaempferol]	kaempferol-3-O-glucoside	kaempferol-3-O-galactoside
O=c1c(O)c(-c2cc(O)c(O)c(O)c2)oc2cc(O)cc(O)c12 [myricetin]	myricetin-3-O-glucoside; also recorded: myricetin-7-O-glucoside	myricetin-3-O-galactoside
